Source: patent US20240368221A1, “IMPATIENS BALSAMINA-DERIVED ANTI-BACTERIAL PEPTIDE AND ANTI-BACTERIAL COMPOSITION CONTAINING SAME” (V&CO CO., LTD., priority 2021, published 2024)
Converted amounts (≈) assume the structure as drawn. Like-named read-outs stand apart in the source and are kept apart here. Where a SMILES comes first, the peptide text is derived from it.

Legend:
[1] = Cytotoxicity, WST-1 cell viability; format: cell-based, murine; settings: mouse, L929 cells (murine fibroblast cell line), L929 cells, 24 hours, read-out: Relative cell viability (%)
Procedure: (§1) Specifically, cytotoxicity was evaluated using a skin cell line, L929 cells (murine fibroblast cell line). In addition, as comparative groups, Ib-AMP4 and the bee venom-derived AMP, melittin, known to be highly cytotoxic, were used. The L929 cells were cultured in RPMI 1640 medium (Gibco), which was supplemented with 10% FBS (Sigma), antibiotic-antimycotic cocktail, penicillin G (100 IU/mL), streptomycin (100 μg/mL), and amphotericin B (250 ng/ml; Gibco), at 37° C. in 5% CO2. The cells were seeded in a 96-well plate at 1×10^4 cell/well, incubated for 18 hours, treated with each peptide at 1.25 to 160 µg/mL, and then incubated for 24 hours. 10 μL of WST-1 reagent was added to 100 μL of the medium and allowed to react at 37° C. for 30 minutes, and then absorbance (A450) was measured at 450 nm using a microplate reader. Instead of the peptides, 0.1% Triton X-100 and PBS were used as positive and negative controls, respectively, and cell viability was calculated based on the following equation: % Cell viability=[(A450 in peptide solution−A450 in PBS)/(A450 in 0.1% Triton X−100-A450 in PBS)]×100. The analysis results were expressed as mean±S.D of three repeated experiments.

[2] = tested on: L929 cells (murine fibroblast cell line); test: Cytotoxicity, WST-1 cell viability; format: cell-based; settings: L929 cells, peptide 5.0 μg/mL, 24 hours
Procedure: as §1

[3] = tested on: sheep red blood cells (sRBCs); test: Hemolytic activity; format: cell-based; settings: 5% sRBC, 30 minutes, room temperature
Procedure: Specifically, hemolytic activity was analyzed using sheep red blood cells (sRBCs). In addition, as comparative groups, Ib-AMP4 and melittin were used. Defibrinated sheep blood (MB cells) was centrifuged (4,000×g, 10 min, 4° C.), washed with PBS three times, and suspended in PBS, thereby preparing an sRBC solution (10% sRBC). 5% sRBC and each peptide were mixed to have a final concentration of 1.25 to 160 μg/mL, allowed to react at room temperature for 30 minutes, and centrifuged to collect a supernatant. The absorbance (A414) of hemoglobin eluted from the red blood cells in the collected supernatant was measured at 414 nm. 0.1% Triton X−100 was used as a positive control, PBS was used as a negative control, and hemolytic activity (% Hemolysis) was calculated based on the following equation: % Hemolysis=[(A414 in peptide solution−A414 in PBS)/(A414 in 0.1% Triton X−100−A414 in PBS)]×100.

[4] = tested on: Candida albicans KCTC 17712; format: cell-based
Procedure: (§2) To examine the antimicrobial and antifungal activity of the six types of peptide derivatives prepared in Example 1, antimicrobial and antifungal activity was analyzed using three types of bacterial strains and two types of fungal strains.
(§3) Specifically, to analyze antimicrobial and antifungal activity, a minimal inhibitory concentration (MIC) was measured. The three types of bacterial strains included Escherichia coli KCCM 41290, Staphylococcus aureus KCTC 1621, and Cutibacterium acnes KCTC 3314, and the two types of fungal strains included Candida albicans KCTC 17712, and Aspergillus niger KCTC 6317. The culture of Escherichia coli and Staphylococcus aureus was performed in Luria-Bertani (LB) medium (BD Difco), and the culture of Cutibacterium acnes was performed in reinforced clostridial medium (RCM, BD Difco). The culture of Candida albicans and Aspergillus niger was performed in potato dextrose (PD) medium (BD Difco). The pre-cultured microorganisms or spores were diluted in a medium to 5×10^3 CFU/mL, and each of the six types of peptide derivatives prepared in Example 1 was added at a predetermined concentration. Afterward, a bacterial strain was cultured at 37° C., a fungal strain was cultured at 25° C. for 18 to 24 hours, and optical densities (OD600) were measured using a microplate reader. Fluorescence values (Ex560 and Em600), instead of optical densities, were measured after adding a resazurin reagent to the Aspergillus niger medium to have a concentration of 100 μM. As a control, Ib-AMP4 was used, and the analysis results were expressed as the average of three repeated experiments.

[5] = tested on: Staphylococcus aureus KCTC 1621; format: cell-based
Procedure: as §2, §3

[6] = tested on: Cutibacterium acnes KCTC 3314; format: cell-based
Procedure: as §2, §3

[7] = tested on: Aspergillus niger KCTC 6317; format: cell-based
Procedure: as §2, §3

[8] = tested on: Escherichia coli KCCM 41290; format: cell-based
Procedure: as §2, §3

[9] = Candida albicans, PD medium, 25° C., 18 to 24 hours, OD600
[10] = Staphylococcus aureus, LB medium, 37° C., 18 to 24 hours, OD600
[11] = Cutibacterium acnes, RCM, 37° C., 18 to 24 hours, OD600
[12] = Aspergillus niger, PD medium, 25° C., 18 to 24 hours, resazurin fluorescence
[13] = Escherichia coli, LB medium, 37° C., 18 to 24 hours, OD600

SMILES | MIC [4, 9] [µg/mL] | MIC [5, 10] [µg/mL] | MIC [6, 11] [µg/mL] | MIC [7, 12] [µg/mL] | MIC [8, 13] [µg/mL] | MIC ([4]; KCTC 17712) [µg/mL] | MIC ([5]; KCTC 1621) [µg/mL] | MIC ([6]; KCTC 3314) [µg/mL] | MIC ([7]; KCTC 6317) [µg/mL] | MIC ([8]; KCCM 41290) [µg/mL] | further results
CC[C@H](C)[C@H](NC(=O)CN)C(=O)NCC(=O)N[C@@H](C)C(=O)N[C@H](C(=O)N[C@@H](CC(C)C)C(=O)N[C@@H](CCCCN)C(=O)N[C@H](C(=O)N[C@@H](CC(C)C)C(=O)N[C@H](C(=O)N[C@H](C(=O)NCC(=O)N[C@@H](CC(C)C)C(=O)N1CCC[C@H]1C(=O)N[C@@H](C)C(=O)N[C@@H](CC(C)C)C(=O)N[C@H](C(=O)N[C@@H](CO)C(=O)N[C@@H](Cc1c[nH]c2ccccc12)C(=O)N[C@H](C(=O)N[C@@H](CCCCN)C(=O)N[C@@H](CCCNC(=N)N)C(=O)N[C@@H](CCCCN)C(=O)N[C@@H](CCCNC(=N)N)C(=O)N[C@@H](CCC(N)=O)C(=O)N[C@@H](CCC(N)=O)C(N)=O)[C@@H](C)CC)[C@@H](C)CC)[C@@H](C)O)[C@@H](C)O)C(C)C)C(C)C [Melittin] | – | – | – | – | – | – | – | – | – | – | viability at 24 h, 1.25 µg/mL ([1]; peptide 1.25 μg/mL): 97.4%; viability at 24 h, 2.5 µg/mL ([1]; peptide 2.5 μg/mL): 51.1%; viability at 24 h, 5 µg/mL ([1]; peptide 5.0 μg/mL): 2.1%; viability at 24 h, 10 µg/mL ([1]; peptide 10 μg/mL): 0.2%; viability at 24 h, 20 µg/mL ([1]; peptide 20 μg/mL): 0.8%; viability at 24 h, 40 µg/mL ([1]; peptide 40 μg/mL): 0.3%; viability at 24 h, 80 µg/mL ([1]; peptide 80 μg/mL): 0.5%; viability at 24 h, 160 µg/mL ([1]; peptide 160 μg/mL): 0.6%; Relative cell viability (%) [2]: 2.1%; Hemolytic Activity (%) ([3]; peptide 1.25 μg/mL): 0.98%; Hemolytic Activity (%) ([3]; peptide 2.5 μg/mL): 3.40%; Hemolytic Activity (%) ([3]; peptide 5.0 μg/mL): 14.0%; Hemolytic Activity (%) ([3]; peptide 10 μg/mL): 25.02%; Hemolytic Activity (%) ([3]; peptide 20 μg/mL): 96.10%; Hemolytic Activity (%) ([3]; peptide 40 μg/mL): 99.36%
N=C(N)NCCC[C@H](NC(=O)[C@H](CCCNC(=N)N)NC(=O)[C@H](CS)NC(=O)[C@H](Cc1ccc(O)cc1)NC(=O)[C@H](CCCNC(=N)N)NC(=O)[C@H](CCCNC(=N)N)NC(=O)CNC(=O)[C@@H]1CCCN1C(=O)CN)C(N)=O [VESCA1] (H-GPGRRYCRR-NH2; N-terminus assumed) | 40 (≈ 35.7 µM) | >100 | >100 | 60 (≈ 53.6 µM) | >100 | – | – | – | – | – | –
C[C@H](NC(=O)[C@H](Cc1ccc(O)cc1)NC(=O)[C@H](CCCNC(=N)N)NC(=O)[C@H](CCCNC(=N)N)NC(=O)CNC(=O)[C@@H]1CCCN1C(=O)CN)C(=O)N[C@@H](CCCNC(=N)N)C(=O)N[C@@H](CCCNC(=N)N)C(N)=O [VESCA2] (H-GPGRRYARR-NH2; N-terminus assumed) | 60 (≈ 55.2 µM) | >100 | >100 | 80 (≈ 73.6 µM) | >100 | – | – | – | – | – | –
N=C(N)NCCC[C@H](NC(=O)CNC(=O)[C@H](Cc1c[nH]c2ccccc12)NC(=O)[C@H](CCC(=O)O)NC(=O)[C@@H](N)CC(=O)O)C(=O)N[C@@H](CCCNC(=N)N)C(=O)N[C@@H](CS)C(=O)N[C@@H](CS)C(=O)NCC(N)=O [VESCA-NH2] (H-DEWGRRCCG-NH2; N-terminus assumed) | – | – | – | – | – | >100 | >100 | >100 | >100 | >100 | –
N=C(N)NCCC[C@H](NC(=O)[C@H](CCCNC(=N)N)NC(=O)[C@H](CCCCN)NC(=O)[C@H](Cc1c[nH]c2ccccc12)NC(=O)[C@H](CCC(=O)O)NC(=O)[C@@H](N)Cc1ccc(O)cc1)C(=O)N[C@@H](CS)C(=O)N[C@@H](CS)C(=O)N[C@@H](CCCCN)C(N)=O [VESCA-NH4] (H-YEWKRRCCK-NH2; N-terminus assumed) | – | – | – | – | – | 100 (≈ 78.7 µM) | >100 | >100 | >100 | >100 | –
CC[C@H](C)[C@H](NC(=O)[C@H](Cc1ccccc1)NC(=O)[C@H](CCCCN)NC(=O)[C@H](CCSC)NC(=O)[C@H](CCCCN)NC(=O)[C@H](CCCNC(=N)N)NC(=O)[C@H](CCCNC(=N)N)NC(=O)[C@@H](NC(=O)[C@H](Cc1c[nH]c2ccccc12)NC(=O)[C@@H](N)CCC(=O)O)C(C)C)C(=O)N[C@@H](CC(N)=O)C(=O)N[C@@H](CO)C(=O)N[C@@H](CC(C)C)C(=O)N[C@@H](Cc1ccc(O)cc1)C(=O)N[C@@H](CO)C(=O)N[C@@H](Cc1c[nH]c2ccccc12)C(N)=O [VESCA-OH3] (H-EWVRRKMKFINSLYSW-NH2; N-terminus assumed) | – | – | – | – | 40 (≈ 18.7 µM) | 100 (≈ 46.7 µM) | 5 (≈ 2.33 µM) | >100 | 80 (≈ 37.3 µM) | – | antimicrobial activity (MIC) ([5]; Staphylococcus aureus, text of b72): 5 µg/mL
